The text below walks through data of PubChem BioAssay AID179 (DTP/NCI, 2004).

For orientation: EC50 means the concentration at which the effect is half-maximal. Broadly, the IC50 is the midpoint of a concentration-inhibition curve. Read a high IC50 as weaker potency.

The test system of this assay is CEM cells HIV-1 protection, formazan growth assay. The experiment in a line: NCI AIDS Antiviral Assay. Particulars: for IC50: measured here: growth of uninfected CEM cells. In short, it runs like this: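 Soluble formazan readout of cell growth; CEM cells ± HIV-1; 5 drug concs. ≥50% protection → retest; ≥50% again = moderately active; reproducible 100% = confirmed active.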

Several values for one entry are separate records, joined by “and”; a condition that tells them apart may be missing. Equal entries are not always repeated. Activity calls are given as the source filed them.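 The calls were made as follows: active = compounds giving half or more protection of infected cells from virus-caused growth loss, again on retest; inactive = the rest.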 Where a SMILES comes first, the peptide text is derived from it. [ ]: non-standard residue; d: D form. The star is where a group is joined. ξ: configuration not given here. Boc = CC(C)(C)OC(=O)*; OBn = c1ccc(CO*)cc1; ξP = O=C(O)C1CCCN1 Where only a bound is given, the exact number is not on record here.

In the case of `CC(=O)Oc1cc2c(c(=O)n1C)C(C)N(C)C2=O` (stereo unspecified), the EC50 is 53.7 µM and the IC50 stood at 309 µM.
As for `CN=C(NN)NS(=O)(=O)c1cc(C)c(Cl)cc1S`, the result was inactive.
The same measure, in the same setting: then `Cc1cc(O)cc2c1CC=C1C(=C2)C(=O)C(=O)C(C(C)C)=C1O`, with “inactive”.
For `O=C(CC(c1ccccc1)C(C(=O)c1ccncc1)C(CC(=O)c1ccncc1)c1ccccc1)c1ccncc1` (stereo unspecified), the EC50 is greater than 200 µM and the IC50 is greater than 200 µM.
Turning to `CCN(CC)c1ccc(N=C2C=CC(=O)c3ncccc32)c(C)c1`, the EC50 was greater than 11.7 µM and the IC50 is greater than 11.7 µM.
In the case of `O=C(O)CN(CC(=O)O)C1CCCCC1N(CC(=O)O)CC(=O)NCCN=C=S` (stereo unspecified), the EC50 is greater than 200 µM and the half-maximal inhibitory concentration (IC50) is greater than 200 µM.
With `CC1=CC(C)S(=O)(=O)C1` (stereo unspecified), the EC50 was greater than 200 µM and the IC50 was greater than 200 µM.
Consider `O=c1c(O)c(-c2ccc(O)c(O)c2)oc2cc(O)cc(O)c12`, for which the outcome was inactive.
As for `COc1cc([N+](=O)[O-])ccc1C(=O)Nc1c2ccccc2nc2ccccc12`, the EC50 is greater than 200 µM and the IC50 turned out to be 0.479 µM.
As for `O=C1CC(=O)NC(=NNS(=O)(=O)c2ccc(Cl)cc2)N1`, the EC50 is greater than 200 µM and the IC50 is greater than 200 µM.
With `O=C(/C=C/c1ccc(-c2ccccc2)cc1)c1ccccc1`, the EC50 was greater than 13.2 µM and the IC50 was greater than 13.2 µM.
Regarding `COCCN(C(=O)c1ccccc1)C1CCC(=O)c2[nH]c3ccccc3c21` (stereo unspecified), the EC50 is greater than 200 µM and the IC50 amounted to 3.63 µM.
In the same order, the values of `CC[N+](C)(CC)CCC(O)(c1ccccc1)c1ccccc1` are greater than 200 µM and greater than 200 µM.
In the same order, the values of `O=C(Nc1ccc(Cl)cc1)Nc1ccc(Cl)c(Cl)c1` are greater than 200 µM and 2.95 µM.
Take `C[N+](C)(C)c1ccc2c(c1)N(S(C)(=O)=O)CC2CCl` (stereo unspecified): the outcome was inactive.
For the molecule `COC(=O)/C(=N/NC(=O)C[N+](C)(C)C)C(C(=O)OC)C(=O)C(=O)Nc1ccc(F)cc1` (stereo unspecified), the EC50 is greater than 145 µM and the IC50 was greater than 145 µM.
With `COc1cc(/C=C/C(=O)c2ccccc2)cc(OC)c1OC`, the EC50 is greater than 87.1 µM and the 50% inhibitory concentration (IC50) worked out at 20.4 µM.
With `CC(=O)O[C@H]1CC[C@@]2(C)C(=CC[C@@H]3C2CC[C@]2(C)Nc4[nH]ncc4CC32)C1` (stereo partly specified), the outcome was inactive.
For `C=C1C2CCC3(C4C[C@@H]5C6(C)CCCC5([C@H](O4)N4CCO[C@H]46)[C@@H]3C2)C1OC(C)=O` (stereo partly specified), the EC50 was greater than 18.2 µM and the IC50 is greater than 18.2 µM.
Consider `CC(C)C1=CC2=C[C@H](O)[C@H]3C(C)(C)CCC[C@]3(C)C2=C(O)C1=O`, for which the EC50 is greater than 20 µM and the IC50 was 1.62 µM.
For the molecule `O=C1C=CC(=O)c2c(-c3ccccc3[N+](=O)[O-])cc(Cl)nc21`, the outcome was inactive.
On to `O=C1C2Nc3ccccc3SC2C(=O)N1c1cccc([N+](=O)[O-])c1` (stereo unspecified), for which the EC50 is greater than 55 µM and the 50% inhibitory concentration (IC50) was greater than 55 µM.
As for `O=C1N(CCO)C2=CCCCC23c2[nH]c4ccccc4c2CCN13` (stereo unspecified), the EC50 was greater than 200 µM and the IC50 was greater than 100 µM.
The corresponding values for `CCOC(=O)c1nc2cc(N3CCOCC3)c(F)cc2[nH]c1=O` are greater than 200 µM and 141 µM.
With `CCOC(=O)c1ccc(-c2cccs2)n1C`, the EC50 is greater than 200 µM and the IC50 is 97.7 µM.
Take `S=c1[nH][nH]c(=S)c2[nH]cnc12`: the EC50 is greater than 141 µM and the IC50 is greater than 141 µM.
In the case of `COCC1C(=O)c2cc3c(cc2C12C=CC1(C=C2)OCCO1)OCO3` (stereo unspecified), the EC50 was greater than 275 µM and the IC50 stood at 11 µM.
In the same order, the values of `CC(C)(C)P1(=O)OCC(c2ccccc2)CO1` (stereo unspecified) are greater than 200 µM and 151 µM.
Regarding `OC1c2ccccc2C(O)C2OC12` (stereo unspecified), the EC50 was greater than 200 µM and the IC50 was 115 µM.
The corresponding values for `CN(C)C(=O)N1CC[N+](C)([O-])CC1` are greater than 200 µM and greater than 200 µM.
In the case of `O=C(/C=C/CC(O)(c1ccccc1)c1ccccc1)Nc1ccccc1Cl`, the EC50 was greater than 19.1 µM and the IC50 is greater than 19.1 µM.
With `CCn1nc(C)c2c1C(=O)NCC(=O)N2`, the EC50 was greater than 200 µM and the IC50 was greater than 200 µM.
With `CS(=O)(=O)NOCCCCONS(C)(=O)=O`, the EC50 was greater than 912 µM and the IC50 was greater than 912 µM.
In the case of `CSc1ccc(NC(=O)Nc2cccc(C)n2)cc1`, the EC50 was greater than 200 µM and the IC50 is greater than 200 µM.
Consider `Cn1c(=O)c2ccccc2[n+]2c(-c3cccc([N+](=O)[O-])c3)csc12`, for which the EC50 is greater than 200 µM and the IC50 was found to be 148 µM.
In the same order, the values of `CC1CCCC2=C1C(=O)N(CSCN1C(=O)C3=C(C1=O)C(C)CCC3)C2=O` (stereo unspecified) are greater than 200 µM and 141 µM.
As for `CCOC(=O)CNC(=O)c1[nH]cnc1/N=N/N(C)C`, the result was inactive and the IC50 was 933 µM.
Regarding `C[Si](C)(/C=C(\Br)CCOC1CCCCO1)c1ccccc1` (stereo unspecified), the outcome was inactive.
Regarding `O=c1[nH]n(Cc2ccccc2Cl)c2ccc([N+](=O)[O-])cc12`, the EC50 is greater than 200 µM and the IC50 turned out to be 69.2 µM.
In the same order, the values of `CC[P+](C#Cc1ccccc1)(c1ccccc1)c1ccccc1` are greater than 20 µM and 0.49 µM.
The corresponding values for `O=C(O)C1CC(c2ccc(F)cc2)=Nc2ccc(F)cc2S1` (stereo unspecified) are greater than 200 µM and greater than 200 µM.
The corresponding values for `Cc1cccc2c1Oc1ccccc1C2NC(=O)CCN(C)C` (stereo unspecified) are greater than 200 µM and 38 µM.
As to `COc1ccc(/C=C2\CN(C)CC3C2=NN(c2ccccc2)C3c2ccc(OC)cc2)cc1` (stereo unspecified), the EC50 was greater than 200 µM and the half-inhibitory concentration (IC50) was greater than 200 µM.
`O=C(CCC(C(=O)OCc1ccccc1)C(=O)OCc1ccccc1)Nc1ccc(OCc2ccccc2)cc1`: the EC50 is greater than 200 µM and the IC50 was found to be 107 µM.
In the case of `C1=C\C=C\C2OC2/C=C/1` (stereo unspecified), the EC50 was greater than 224 µM and the IC50 was found to be 112 µM.
In the same order, the values of `CC(=O)O[C@]1(C)CCC2C(C)C(=O)OC2C2C(C)[C@@H](O)CC21` (stereo partly specified) are greater than 200 µM and 34.7 µM.
As to `Cc1ccc2c(c1)C(=O)N(N(C)C)CC(=O)N2`, the result was inactive.
As to `N#CC1=C(c2ccccc2)C(=C2Nc3ccccc3N2)C2S/C(=C\c3ccccc3)C(=O)N2C1=N` (stereo unspecified), the EC50 is greater than 2.19 µM and the concentration for half-maximal inhibition (IC50) is greater than 2.19 µM.
As for `O=C1/C(=C/c2ccccc2F)CCc2ccccc21`, the EC50 is greater than 10.7 µM and the IC50 is greater than 10.7 µM.
With `Nc1ccc2c(=S)c3ccccc3[nH]c2c1`, the outcome was inactive.
Still for that read-out and setting: the same measure for `Cn1c2ccccc2c(=O)c2c(O)cc3c(c21)N=CC(C)(C)O3`: “inactive”.
For the molecule `CC1(C)CC(=O)c2c(nc3c(ccc4ccccc43)c2-c2ccc(NC(=O)CCC(=O)Nc3ccc(-c4c5c(nc6c4ccc4ccccc46)CC(C)(C)CC5=O)cc3)cc2)C1`, the EC50 is greater than 100 µM and the IC50 was greater than 100 µM.
For `C1CCc2nnnn2CC1`, the EC50 is > 200 µM and 120 µM; the IC50 was > 200 µM and 724 µM.
For `COC(=O)c1ccc(/C=C2\Cc3ccccc3C2=O)cc1`, the EC50 is greater than 200 µM and the IC50 was greater than 200 µM.
`COc1c(OC)c(OC)c(-c2cc(=O)c3c(OC)c(OC)c(OC)c(OC)c3o2)c(OC)c1OC`: the EC50 is greater than 200 µM and the IC50 is 56.2 µM.
As for `O=C1C(Br)=CC2(C=C1Br)CCNc1c(O)c3c4c(c12)=NCCC=4C=N3`, the EC50 was greater than 2 µM and the IC50 amounted to 0.0891 µM.
The corresponding values for `CN(C)c1ccc(/C=C2\C=Nc3ccccc32)cc1` are greater than 20.9 µM and 14.1 µM.
`COc1ccc(CCN2C(=O)c3cccc4c(Sc5ccccc5[N+](=O)[O-])ccc(c34)C2=O)cc1OC`: the EC50 is greater than 200 µM and the 50% inhibitory concentration (IC50) was greater than 200 µM.
In the case of `COc1ccc(CC2NCCc3cc(OC)c(OC)cc32)cc1Br` (stereo unspecified), the EC50 is greater than 240 µM and the IC50 came out at 33.9 µM.
In the same order, the values of `CCOC(=O)c1sc2c(c1OC(=O)c1ccc(OC)cc1)c(=O)n(-c1ccccc1)c(=S)n2-c1ccccc1` are greater than 200 µM and 38.9 µM.
Consider `CSc1nc2[nH]c(=O)n(OS(=O)(=O)c3ccccc3)c(=O)c2n1C`, for which the EC50 is greater than 200 µM and the IC50 was 115 µM.
Turning to `C[Si](C)(C)C#CC#C[Si](C)(C)C.[Ni].[Ni].[Ni].[Ni].[c-]1[c-][c-][cH-][c-]1.[c-]1[c-][c-][cH-][c-]1.[c-]1[c-][c-][cH-][c-]1.[c-]1[c-][c-][cH-][c-]1`, the EC50 was greater than 2.09 µM and the IC50 was greater than 2.09 µM.
Consider `O=C1c2ccccc2C2(O)Nc3cc(O)ccc3C12O` (stereo unspecified), for which the EC50 was greater than 933 µM and the IC50 amounted to 661 µM.
In the same order, the values of `Cc1cc(S(=O)(=O)NC(=NCC(=O)NN)NN)c(S)cc1Cl` are greater than 200 µM and 34.7 µM.
The corresponding values for `CC1(C)OC2C(CF)OC(n3cc(Br)c(=O)[nH]c3=O)C2O1` (stereo unspecified) are greater than 200 µM and greater than 200 µM.
The corresponding values for `CCOP(N)(=O)c1ccccc1` (stereo unspecified) are greater than 200 µM and greater than 200 µM.
`NC(=S)N/N=C1/CCCC2CCCC[C@@H]12` (stereo partly specified): the EC50 was greater than 200 µM and the 50% inhibitory concentration (IC50) was greater than 200 µM.
Take `CC(=O)OC1C2C(=C(C)C(=O)O[C@@H]2c2ccoc2)[C@@]2(C)C3CCC(C)(C(=O)O3)C12` (stereo partly specified): the EC50 was 162 µM and the IC50 was greater than 200 µM.
The corresponding values for `COc1cc(C2c3cc4c(cc3OC(N3CCOCC3)C2C)OCO4)ccc1O` (stereo unspecified) are greater than 200 µM and 5.13 µM.
In the same order, the values of `N#CCN(Cc1ccccc1)[C@H]1CCC[C@]1(O)/C=C/c1ccc2c(c1)OCO2` are greater than 200 µM and 32.4 µM.
For the molecule `C/C(=N\O)[C@H]1CC[C@H]2[C@@H]3CC[C@@H]4C/C(=N/O)CC[C@]4(C)[C@H]3[C@@](C)(O)C[C@]12C`, the EC50 was greater than 200 µM and the IC50 is 26.9 µM.
The corresponding values for `CC(C)(C)OC(=O)N[C@@H](Cc1ccccc1)C(=O)N1CCCC1C(=O)OCc1ccccc1` (stereo partly drawn) (Boc-Phe-[ξP]-OBn) are greater than 41.7 µM and greater than 41.7 µM.
In the same order, the values of `CC1=N/C(=C\c2ccccc2Br)C(=O)O1` are greater than 97.7 µM and greater than 97.7 µM.
